Measured values from publication PMC9037210, “Novel 3-(6-methylpyridin-2-yl)coumarin-based chalcones as selective inhibitors of cancer-related carbonic anhydrases IX and XII endowed with anti-proliferative activity” (Journal of Enzyme Inhibition and Medicinal Chemistry, 2022).

What was measured:
hCA II = target: T1, hCA II (Homo sapiens, UniProt P00918); assay: stopped-flow CO2 hydrase assay, hCA II; format: biochemical; conditions: incubation time of 6 h, mean of three assays, read-out: KI CA II
T1 construct: made in house
Method: (§1) The newly synthesised MPCs (3 and 5a–o) were assessed for their CA inhibition activity employing the stopped-flow CO2 hydrase assay[29] for constitutional hCA (I/II) isoforms and cancer-linked hCA (IX/XII) isoforms.
(§2) The CA inhibition activity for the herein reported MPC derivatives was evaluated against the hCA isoforms I, II, IX, and XII using stopped-flow CO2 hydrase test[7]^,[33–36] (see the Supplementary Material).
(§3) Carbonic anhydrase inhibition assay
(§4) The carbonic anhydrase catalyzed CO2 hydration actions for all coumarin-based […]
(§5) Photophysics stopped-flow. The enzymes are recombinant proteins prepared in our lab. Phenol red (at a concentration of 0.2 mM) has been used as indicator, working at […]
(§6) mM Na2SO4 (for maintaining constant the ionic strength), following the initial rates of the CA-catalyzed CO2 hydration reaction for a period of 10-100 s. The CO2 concentrations ranged from 1.7 to 17 mM for the determination of the kinetic parameters and inhibition constants. For each inhibitor at least six traces of the initial 5-10% of the reaction have been used for determining the initial velocity. The uncatalyzed rates were determined in the same manner and subtracted from the total observed rates. Stock solutions of inhibitor (0.1 mM) were prepared in distilled-deionized water and dilutions up to 0.01 nM were done thereafter with the assay buffer. Inhibitor and enzyme solutions were preincubated together for 6 hrs. at room temperature prior to assay, in order to allow for the formation of the E-I complex. The inhibition constants were obtained by non-linear least-squares methods using PRISM 3 and the Cheng-Prusoff equation, and represent the mean from at least three different

hCA IX = target: T2, hCA IX (Homo sapiens, UniProt Q16790); assay: stopped-flow CO2 hydrase assay, hCA IX; format: biochemical; conditions: for Selectivity index (SI) (KI off-target CA/KI target CA) Towards hCA IX: ratio of KI for hCA I and II relative to hCA IX; for Ki: stopped-flow, incubation time of 6 h, mean of three assays, read-out: KI CA IX
T2 construct: made in house
Method: as §1, §2, §3, §4, §5, §6

HOP-62 = assay: NCI single (10 µM) dose SRB screening, HOP-62; format: cell-based, human; conditions: 10 µM single dose, HOP-62, NSC lung cancer
Method: (§7) Following NCI protocol, sixteen MPCs were screened for their potential in vitro anticancer effects against human 59 cancer cell panels including prostate, leukaemia melanoma, colon, breast, CNS, renal, NSCLC, and ovarian cancers by National Cancer Institute (USA)[30].
(§8) The antiproliferative activities of MPC 3 and MPCs 5a–o were first evaluated in a 10 µM dose assay, with SRB assay used to determine cell survival and proliferation. […] The results of the cell growth inhibitory activities for MPCs 5g and 5l towards the different treated tumour cell lines were presented as GI% and presented in Table 3.
(§9) The anticancer test was conducted using the methods of the Drug Evaluation Branch, National Cancer Institute, Bethesda, MD, using 59 human tumour cell lines derived from nine human tissues. The GI50, TGI, and LC50 dose-response parameters were calculated for each medication.

NCI-H23 = assay: NCI single (10 µM) dose SRB screening, NCI-H23; format: cell-based, human; conditions: 10 µM single dose, NCI-H23, NSC lung cancer
Method: as §7, §8, §9

SNB-19 = assay: NCI single (10 µM) dose SRB screening, SNB-19; format: cell-based, human; conditions: 10 µM single dose, SNB-19, CNS cancer
Method: as §7, §8, §9

M14 = assay: NCI single (10 µM) dose SRB screening, M14; format: cell-based, human; conditions: 10 µM single dose, M14, Melanoma
Method: as §7, §8, §9

UACC-62 = assay: NCI single (10 µM) dose SRB screening, UACC-62; format: cell-based, human; conditions: 10 µM single dose, UACC-62, Melanoma
Method: as §7, §8, §9

T-47D = assay: NCI single (10 µM) dose SRB screening, T-47D; format: cell-based, human; conditions: 10 µM single dose, Breast cancer
Method: as §7, §8, §9

[1] = tested on: fifty-nine cancer cell lines; assay: full NCI panel five dose assay, whole panel; format: cell-based; conditions: five-dose (0.01–100 µM)
Method: (§10) MPC 5l was then chosen for additional biological evaluation in a five-dose (0.01–100 µM) experiment. MPC 5l's GI50, TGI, and LC50 response parameters were obtained for each of the cancer cell lines studied. TGI represents cytostatic impact, whereas GI50 values reflect the extent of growth inhibitory effect. Furthermore, the LC50 parameter is regarded as the cytotoxicity parameter for the hybrid under investigation.
as §9

K-562 = assay: NCI five dose assay, K-562; format: cell-based, human
Method: as §10, §9

RPMI-8226 = assay: NCI five dose assay, RPMI-8226; format: cell-based, human; conditions: RPMI-8226, Leukaemia
Method: as §10, §9

SR = assay: NCI five dose assay, SR; format: cell-based, human; conditions: Leukaemia
Method: as §10, §9

HOP-92 = assay: NCI five dose assay, HOP-92; format: cell-based, human; conditions: HOP-92, NSC lung cancer
Method: as §10, §9

HCT-116 = assay: NCI five dose assay, HCT-116; format: cell-based, human; conditions: HCT-116, Colon cancer
Method: as §10, §9

SW-620 = assay: NCI five dose assay, SW-620; format: cell-based, human; conditions: SW-620, Colon cancer
Method: as §10, §9

U251 = assay: NCI five dose assay, U251; format: cell-based, human
Method: as §10, §9

LOX IMVI = assay: NCI five dose assay, LOX IMVI; format: cell-based, human; conditions: Melanoma
Method: as §10, §9

MCF7 = assay: NCI five dose assay, MCF7; format: cell-based, human; conditions: MCF7, Breast cancer
Method: as §10, §9

[2] = Homo sapiens, read-out: IC50 (the source's name)

`Cc1nc(-c2cc3ccccc3oc2=O)ccc1C(=O)/C=C/c1ccccn1` [Compound 5l, 3-(6-Methyl-5-[(2E)-3-(pyridin-2-yl)prop-2-enoyl]pyridin-2-yl)-2H-chromen-2-one] was tested, and the Ki (hCA II) was over 100 µM, the “Selectivity index (SI) (KI off-target CA/KI target CA) Towards hCA IX” value (hCA IX) was over 26.32 and the Ki (hCA IX) was 3.8 µM. For the same compound, the GI % (HOP-62) was “– (Only GI % more than 20% are displayed.)”, the GI % (NCI-H23) was 44% and the GI % (SNB-19) was 28%. The GI % (M14) was “– (Only GI % more than 20% are displayed.)”, the GI % (UACC-62) was 28% and the GI % (T-47D) was 47%. The CC50 ([1]; Homo sapiens, all cancer cells, read-out: LC50 (the source's name)) was over 100 µM, the GI50 ([1]; Homo sapiens, remaining cancer cells (other than the nine of Table 4)) was over 100 µM and the TGI ([1]; all cancer cell lines) was over 100 µM. The GI50 (K-562; Homo sapiens, K562, K-562, Leukaemia) was 6.47 µM, the LC50 (K-562; Homo sapiens, K562, K-562, Leukaemia, read-out: IC50 (the source's name)) was over 100 µM and the TGI (K-562; K-562, Leukaemia) was over 100 µM. For the same compound, the GI50 (RPMI-8226; Homo sapiens) was 3.41 µM, the LC50 (RPMI-8226; [2]) was over 100 µM and the TGI (RPMI-8226) was over 100 µM. The GI50 (SR; Homo sapiens) was 5.3 µM, the LC50 (SR; [2]) was over 100 µM and the TGI (SR) was over 100 µM. The TGI (HOP-92) was over 100 µM, the GI50 (HOP-92; Homo sapiens) was 7.25 µM and the LC50 (HOP-92; [2]) was over 100 µM. For the same compound, the TGI (HCT-116) was over 100 µM, the GI50 (HCT-116; Homo sapiens) was 6.34 µM and the LC50 (HCT-116; [2]) was over 100 µM. For the same compound, the GI50 (SW-620; Homo sapiens) was 6.77 µM, the LC50 (SW-620; [2]) was over 100 µM and the TGI (SW-620) was over 100 µM. It also gave a GI50 (U251; Homo sapiens, U-251, U251, CNS cancer) of 8.49 µM, an LC50 (U251; Homo sapiens, U-251, U251, CNS cancer, read-out: IC50 (the source's name)) of over 100 µM and a TGI (U251; U251, CNS cancer) of over 100 µM. For the same compound, the GI50 (LOX IMVI; Homo sapiens) was 3.2 µM, the LC50 (LOX IMVI; [2]) was over 100 µM and the TGI (LOX IMVI) was over 100 µM. It also gave a GI50 (MCF7; Homo sapiens) of 3.72 µM, an LC50 (MCF7; [2]) of over 100 µM and a TGI (MCF7) of over 100 µM.
With `Cc1nc(-c2cc3ccccc3oc2=O)ccc1C(=O)/C=C/c1ccc(N2CCOCC2)cc1` [Compound 5g, 3-(6-Methyl-5-[(2E)-3-[4-(morpholin-4-yl)phenyl]prop-2-enoyl]pyridin-2-yl)-2H-chromen-2-one] the Ki (hCA II) was over 100 µM, the “Selectivity index (SI) (KI off-target CA/KI target CA) Towards hCA IX” value (hCA IX) was over 8.33 and the Ki (hCA IX) was 12 µM. The GI % (HOP-62) was “– (Only GI % more than 20% are displayed.)”, the GI % (NCI-H23) was “– (Only GI % more than 20% are displayed.)” and the GI % (M14) was 54%. For the same compound, the GI % (UACC-62) was 47% and the GI % (T-47D) was “– (Only GI % more than 20% are displayed.)”.
